“Also recorded” adds a separate entry of the source.
Legend:
[1] = system: PBMCs isolated from DQ8 positive T1D patients; test: Cytokine production in PBMCs from DQ8 positive recent-onset T1D patients; format: cell-based, human; conditions: stimulated with InsB:9-23 for 48 h; all peptides at 50 μg/ml
Excerpt: (§1) Subjects with a diagnosis of T1D within the previous 2 years were recruited from the Pediatric Endocrine clinic at Children Hospital at Montefiore and from the adult Endocrine clinics at Montefiore and Mount Sinai Hospitals (New York). Peripheral blood mononuclear cells (PBMCs) were isolated from heparinized blood using Ficoll-Paque (GE Healthcare); freshly isolated PBMCs were used for T-cell activation studies and for genotyping. DNA purified from the blood of the patients was typed for HLA-DQ as previously described (32). PBMCs isolated from DQ8 positive patients were seeded in 96 well plates with 200 μl medium (RPMI, 10% FBS). […] The stimulated PBMCs were assessed for cytokine production and T-cell proliferation as described above for mouse splenocytes. DQ8 typed patients with long standing T1D (>10 years) were used as negative controls in the experiments (no T-cell responses to islet peptides).

[2] = system: PBMCs isolated from DQ8 positive T1D patients; test: CFSE T-cell proliferation in PBMCs from DQ8 positive recent-onset T1D patients; format: cell-based, human; conditions: all peptides at 50 μg/ml
Excerpt: as §1

[3] = Half-life and Intrinsic Clearance of RI-CT and RI-EXT (1 µM) after Incubation with Mouse Hepatocytes
Protocol: Table printed on a drawing sheet, FIG. 20
Title: Half-life and Intrinsic Clearance of RI-CT and RI-EXT (1 µM) after Incubation with Mouse Hepatocytes
First reader's note: The footnotes are printed inside the table frame as its last two rows; midazolam is a small-molecule positive control.

[4] = molecular target: T1, HLA-DQ8 expressed on BSM cells (Homo sapiens, UniProt P01909+P01920, F237L); test: Flow cytometric analysis of InsB:9-23 peptide binding to BSM cells; format: cell-based; conditions: flow cytometry
T1 construct: BSM cells that express HLA-DQ8 on their surface; host or cells: BSM cells (B-cell line homozygous for HLA-DQ8)

[5] = molecular target: T2, recombinant HLA-DQ8 protein (Homo sapiens, UniProt P01909+P01920); test: DELFIA immunoassay: inhibition of biotinylated InsB:9-23 binding to recombinant HLA-DQ8; conditions: for inhibition of InsB:9-23 binding to HLA-DQ8 (in words): D-peptides screened at 10 μM, recombinant HLA-DQ8
T2 construct: contained the extracellular portion of the DQA1*0301 α chain fused to the coiled-coil region of the basic leucine zipper domain of Fos; contained the extracellular portion of the DQB1*0302 β chain fused to the coiled-coil region of the basic leucine zipper domain of JunB; Fos leucine zipper (coiled-coil region) (C); TEV protease site (internal); His6; JunB leucine zipper (coiled-coil region) (C); FLAG; host or cells: baculovirus system
Excerpt: HLA-DQ8 protein was produced using the baculovirus system. Two constructs were designed for both the α and the β chains of HLA-DQ8. The β chain construct contained the extracellular portion of the DQB1*0302 β chain fused to the coiled-coil region of the basic leucine zipper domain of JunB, and the α chain construct contained the extracellular portion of the DQA1*0301 α chain fused to the coiled-coil region of the basic leucine zipper domain of Fos. […] A tobacco etch virus protease cutting site was introduced in each chain to allow removal of the dimerization motif. The JunB and Fos dimerization motifs were added in order to allow the α and β chains to dimerize and form the final HLA-DQ8 protein (FIG. 12A). These constructs were used to produce the HLA-DQ8 protein in a baculovirus system using the Life Technologies Baculovirus protein production custom services (Carlsbad, CA).
D-peptides were produced by Fisher Scientific (Hanover Park, IL) in dry form and dissolved in PBS. All D-peptides were screened at a concentration of 10 μM for their ability to bind to the HLA-DQ8 pocket and block it from binding the InsB:9-23 peptide using a unique immunoassay (23). […] After washing 4 times, DELFIA Europium-labeled streptavidin (PerkinElmer) diluted in DELFIA assay buffer (PerkinElmer) was added for 30 minutes and shaken at slow speed at room temperature. Since the InsB:9-23 peptide was biotinylated the complex HLA-DQ8-InsB:9-23 peptide could be detected using the Europium-labeled streptavidin. After washing for 6 times, DELFIA Enhancement Solution was added for 1 hour or until the optimal signal was reached. Time-resolved fluorescence was measured using the BMG reader (BMG Labtech, Cary, NC). The experiment was performed in triplicate. As a negative control biotinylated InsB:9-23 peptide that was not pre-incubated with HLA-DQ8 was added to the nickel coated plates.
Immunoassay was performed as described above.

[6] = system: T-cells of InsB:9-23-immunized SJL-DQ8 mice; test: In vivo D-peptide treatment of InsB:9-23-immunized SJL-DQ8 humanized mice; parameters: species or system mouse; conditions: 200 μg intraperitoneally on days 4, 7, 11 and 14; sacrifice day 17
[7] = Metabolic stability in mouse hepatocytes; format: in vitro ADME; conditions: mouse, hepatocytes; 1 μM; read-out: half-life after incubation with mouse hepatocytes (converted)
Protocol: Cryopreserved mouse hepatocytes were thawed at 37° C. in water bath until the ice was almost melted (˜90 seconds). The suspensions from the each were immediately transferred to 50 mL centrifuge tubes containing pre-warmed thawing media (VitroGRO HT Medium, Thawing) at 37° C. The cell suspensions were centrifuged at 50 g for 5 minutes at 4° C. (SYS679). Supernatants were discarded and the pellets were re-suspended in pre-warmed 3 mL incubation media (from in vitroGRO HT Medium, Incubation) at 37° C. The percentages of viable cells in the suspension were determined by using the Trypan Blue stain method (20 μL of tryptan blue and 20 μL of cell suspension) DF=2. Cryo mouse hepatocyte (Bioreclamation, lot #CHV) viability was 72.62% (viable/dead=305/115), and the total cells were 4.57 million. 1.57 mL of incubation media was added to cell concentration to get 1 million cells/mL. 10 μl of 100 μM test compounds stock in ACN:H2O (v:v, 1:1) was added to 990 μl of hepatocyte suspension/incubation media in a 24-well plate. 10 μl of 20 μM Midazolam was added to 990 μl of hepatocyte suspension as a positive control in a 24-well plate. The cells were incubated in a 37° C. incubator (SYS431) for 4 hours. 50 μl of aliquots (n=2) were added to 800 ul of MeOH:water (v:v, 5:95) at 0, 15, 30, 60, 120, 180 and 240 minutes. For all samples, 20 μL of internal standard (200 ng/mL tolbutamide) was added to the solution in water. The samples were vortexed vigorously for 5 minutes and then loaded onto a pre-conditioned Oasis HLB 96-well SPE plate (10 mg, […]). The Oasis HLB 96-well SPE plate was conditioned with 1 mL of methanol and then rinsed with 1 mL of water before the samples were loaded. Once loaded onto the Oasis HLB 96-well SPE plate, residual solution was removed by vacuum. The samples were eluted into a clean 96-well plate with 800 μL of 0.1% formic acid in 70% acetonitrile. The samples were evaporated to dryness under nitrogen at ambient temperature using a TurboVap 96 Concentration Workstation (Caliper Life Sciences). […]

[8] = system: splenocytes isolated from SJL-DQ8 mice; test: Ex vivo CFSE T-cell proliferation, splenocytes of InsB:9-23-immunized SJL-DQ8 mice; format: cell-based, mouse; conditions: all peptides at 50 μg/ml; 5 days
Excerpt: ID NO: 23) and reverse primer [NT]

[9] = system: 5KC cells (TCR specific for the InsB:9-23-DQ8 complex) with BSM cells; test: Mixed lymphocyte reaction (BSM cells loaded with InsB:9-23 and 5KC cells), IL-2 by Luminex; format: cell-based, human, murine; conditions: peptide loaded on BSM cells
Protocol: BSM cells homozygous for HLA-DQ8 (European Collection of Authenticated Cell Cultures) were cultured in RPMI growth medium (ATCC, Manassas, VA) supplied with 10% fetal bovine serum (FBS) (Sigma), 1% penicillin-streptomycin (Corning, NY), and 2 mM glutamine (Corning). Cells were grown at 37° C., 5% CO2, and passaged 1-2 times a week. 5KC cells (generously provided by Dr. Maki Nakayama, University of Colorado, Denver) were produced and cultured as described (25, 26).
To functionally test in vitro D-peptides ability to block T-cell activation, 10^6 BSM cells were incubated over night with 200 μg/ml InsB:9-23 (or with scrambled InsB:9-23 or gliadin as negative peptides); on the following day InsB:9-23 loaded BSM cells were washed twice with phosphate buffered saline (PBS) to remove excess peptide and RI-CT or RI-EXT peptides (or scrambled RI-CT/RI-EXT, as negative controls) were added to the cells. Following 2 hours of incubation at 37° C. 5KC cells were added to the mixture BSM-InsB:9-23-D-peptides (1:1 proportion) and incubated overnight. 5KC cells are transfected with human T-cell receptor that is activated only upon engagement with HLA-DQ8-InsB:9-23 complex. […] After overnight incubation of the 5KC cells with BSM cells loaded with InsB:9-23 and with different D-peptides IL-2 production was measured in the supernatants by Luminex assay. […]

T1 sequence (P01920 33-261 A45G/Y58L/E77G/D89A/H199R/T217I, other chains not shown): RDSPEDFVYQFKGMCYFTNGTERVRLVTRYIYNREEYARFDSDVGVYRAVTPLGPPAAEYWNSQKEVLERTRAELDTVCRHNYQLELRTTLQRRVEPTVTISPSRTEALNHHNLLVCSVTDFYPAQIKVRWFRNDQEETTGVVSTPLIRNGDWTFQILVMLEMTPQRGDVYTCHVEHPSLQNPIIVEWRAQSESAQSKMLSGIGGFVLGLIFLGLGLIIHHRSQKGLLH

binding of InsB:9-23 to HLA-DQ8 positive BSM cells ([4]; incubated without D-peptides) | binding to the recombinant HLA-DQ8 protein ([5]; biotinylated peptide, compared to scrambled InsB:9-23, FIG. 3B) | Compound | IFN-γ production, PBMCs of DQ8 positive T1D patients [1] | IL-2 production, PBMCs of DQ8 positive T1D patients [1] | T-cell proliferation induced by InsB:9-23 (CFSE assay), PBMCs of DQ8 positive T1D patients [2] | CLint (mL/min/million cells) [3] | t1/2 [3] | inhibition of the binding of InsB:9-23 to DQ8 expressed on BSM cells (in words) ([4]; 10 μM peptide) | inhibition of InsB:9-23 binding to HLA-DQ8 (in words) [5] | inhibition of InsB:9-23 binding to HLA-DQ8 (in words) ([5]; listed as #10) | dose dependence of the inhibition of InsB:9-23 binding to HLADQ8 ([5]; serially diluted to 0.5 μM, FIG. 3D) | activation of T-cells by InsB:9-23 in immunized mice (IL-2, IFN-γ of splenocytes) [6] | half-life [7] | T-cell proliferation induced by InsB:9-23 (CFSE assay), SJL-DQ8 splenocytes [8] | induction of IL-2 secretion in 5KC cells / activation of 5KC cells [9]
 |  | CC(C)C[C@@H](NC(=O)[C@@H](Cc1ccc(O)cc1)NC(=O)[C@@H](CC(C)C)NC(=O)[C@H](NC(=O)[C@@H](CS)NC(=O)CNC(=O)[C@@H](CCC(=O)O)NC(=O)[C@@H](CCCNC(=N)N)NC(=O)CNC(=O)CNC(=O)[C@@H](Cc1ccccc1)NC(=O)[C@H](N)Cc1ccccc1)C(C)C)C(=O)N[C@H](C)C(=O)N[C@H](CCC(=O)O)C(=O)N[C@@H](C(=O)N[C@H](CC(C)C)C(=O)N[C@H](Cc1c[nH]cn1)C(=O)N[C@H](CO)C(=O)NCC(=O)O)C(C)C [RI-EXT] | significantly suppressed; also recorded: significantly decreased | significantly suppressed; also recorded: significantly decreased | significantly suppressed; also recorded: significantly decreased | 0.012 mL/min/million cells | 0.963 h | inhibits the binding | significant inhibition | best extended sequence | dose-dependent | significantly blocked | ~1 h | significantly suppressed; also recorded: significantly decreased | 
84.8% | significant binding | SHLVEALYLVCGERG [InsB:9-23, diabetogenic insulin peptide, reference compound] |  |  |  |  |  |  |  |  |  |  |  |  | dose-dependent manner

From patent US12552854B2, “Peptides that block presentation of antigenic islet peptides by HLA-DQ8 and methods for treating type-1 diabetes” (Icahn School of Medicine at Mount Sinai, priority 2019, dated 2026)
